Measured values reported in patent publication US11560391B2, “Sulfonylurea compounds as inhibitors of interleukin-1 activity” (Genentech, Inc., priority 2018, dated 2023).
Where two headings read alike, the source gives them in different places.

What was measured:
PBMCs = assay: CTG (CellTiter-Glo) viability assay of compound-treated LPS and nigericin stimulated PBMCs; assay type: cell-based, human
Experimental: (§1) Human peripheral blood mononuclear cells (PBMCs), consisting of lymphocytes (T, B and NK cells), monocytes and dendritic cells, are freshly isolated from human peripheral blood from healthy donors. Cells are obtained through an IRB approved donor program by iXCells Biotechnologies where all the donors are tested for bacterial and viral infections. Cells are purified from peripheral blood using ficoll gradient centrifugation.
(§2) Fresh or cryopreserved PMBCs are seeded in V-bottom 96-well plate at 0.5-1×10^5 cells per well and incubated overnight at 37° C. with 5% CO2 in RPMI 1640 medium with GlutaMAX supplement, 4.5 g/L D-glucose, 10% Fetal Bovine Serum (FBS), […] Sodium Pyruvate, 1% Penicillin/Streptomycin, 10 mM HEPES and 0.05 mM of […]. Freshly isolated or cryopreserved KCs cells are seeded in flat-bottom 96-well plates at 0.6-1.5×10^5 cells/well and incubated overnight at 37° C., 5% CO2 in RPMI 1640 Medium with GlutaMAX supplement, FBS, 1% Penicillin/Streptomycin and 10 mM HEPES. The following day, the cells are primed with 100 ng/mL of lipopolysaccharides (LPS; Sigma Aldrich) in FBS-free RPMI 1640 for 3 h. After the priming step, the media is removed and PBMCs are pre-incubated with serial concentrations of test compounds (0.00017-10 uM) or vehicle (DMSO) for 30 min in FBS-free media prior to addition of the NLRP3 activator. Cells are then stimulated with 10 μM Nigericin (Sigma Aldrich; InvivoGen) for 1.5 h. Plates were centrifuged at 1,500 rpm for 3 minutes to pellet cells and supernatant was transferred into new plates for subsequent experiments.
Viability of compound treated cells is measured using CellTiter-Glo® assay (Promega, Madison, Wis.) that measures the ATP content of cells which is proportional to the number of live cells within a well. This is a counter-screen to establish that the reduction of IL-1β levels in LPS and nigericin stimulated and compound treated cells is not due to cytotoxicity, but rather through the inhibition of the inflammasome pathway. Compounds inhibiting NRLP3 inflammasome activation ultimately increase the viability of LPS and nigericin stimulated cells by blocking NLRP3 mediated pyroptosis that would otherwise lead to cell lysis.

NLRP3 inflammasome = target: T1, NLRP3 inflammasome (Homo sapiens, UniProt Q96P20); assay: NLRP3 inflammasome activation assay in LPS-primed, nigericin-stimulated PBMCs, IL-1β release; assay type: cell-based; settings: 10 μM nigericin
T1 construct: freshly isolated from human peripheral blood from healthy donors; StemCells Technologies; host or cells: primary human PBMCs
Experimental: Some of the following assays were used to determine the inhibitory activity of the compounds on the NLRP3 inflammasome using a common inflammasome activation stimuli-nigericin.
as §1, §2
For ELISA assays cells are seeded into 96-well plates. Post study, supernatants are removed and the levels of mature IL-1β, IL18 and TNFα (Quantikine ELISA, R&D systems) are measured in cell conditioned media by ELISA according to manufacturer's instructions.
Human frozen PBMCs were purchased from StemCells Technologies. Cells were rapidly thawed in 37° C. water bath and resuspended in fresh assay media consisting of RPMI 1640 Medium containing 1% sodium pyruvate, 10 mM HEPES, 2.5 g/L glucose and 55 μM 2-Mercaptoethanol. Cell density was adjusted to 8.1×10^5 cells/mL. Cells were primed by adding lipopolysaccharide (Invivogen Ultrapure lipopolysaccharide from E. coli, tlrl-3pelps) at a final concentration of 100 ng/mL in cell suspension. 37 μL of cell suspension with LPS was seeded per well of a 384 well plate and incubated for 3 hours at 37° C. and 5% CO2. After priming, PBMCs were preincubated with serially diluted test compounds with starting concentration of 40 μM followed by 2-fold dilution for a 20-point curve or vehicle (DMSO) for 30 min in assay media at 37° C. and 5% CO2. Cells were then stimulated with 10 μM nigericin (Invivogen, tlrl-nig-5) for 90 min at 37° C. and 5% CO2 to activate NLRP3 dependent inflammasome pathway and IL-1β release in cell culture supernatant. Cells were centrifuged at 1200 RPM for 1 min and 40 μL of supernatant was transferred into fresh plates and stored at −80° C. until IL-1β analysis.
16 μL of supernatant was added to white 384 well HTRF plates, followed by addition of 4 μL of HTRF cocktail in each well. Plates were quickly centrifuged, sealed and incubated overnight at room temperature. Next day, HTRF signal was read on a Pherastar and ratio of 665/620 was calculated based on manufacturer's protocol to obtain concentration of IL-1β in cell culture supernatant.

[1] = Homo sapiens, PBMC, read-out: PMBC CTG IC50
[2] = PBMC, LPS priming, read-out: PMBC IL-1β IC50
[3] = Homo sapiens, PBMC, LPS and nigericin stimulated cells, read-out: CTG pIC50 (converted)
[4] = LPS 100 ng/mL priming, read-out: IL-1B pIC50 (converted)
[5] = LPS and nigericin stimulated cells, read-out: CTG pIC50 (converted)

T1 sequence (Q96P20 whole entry): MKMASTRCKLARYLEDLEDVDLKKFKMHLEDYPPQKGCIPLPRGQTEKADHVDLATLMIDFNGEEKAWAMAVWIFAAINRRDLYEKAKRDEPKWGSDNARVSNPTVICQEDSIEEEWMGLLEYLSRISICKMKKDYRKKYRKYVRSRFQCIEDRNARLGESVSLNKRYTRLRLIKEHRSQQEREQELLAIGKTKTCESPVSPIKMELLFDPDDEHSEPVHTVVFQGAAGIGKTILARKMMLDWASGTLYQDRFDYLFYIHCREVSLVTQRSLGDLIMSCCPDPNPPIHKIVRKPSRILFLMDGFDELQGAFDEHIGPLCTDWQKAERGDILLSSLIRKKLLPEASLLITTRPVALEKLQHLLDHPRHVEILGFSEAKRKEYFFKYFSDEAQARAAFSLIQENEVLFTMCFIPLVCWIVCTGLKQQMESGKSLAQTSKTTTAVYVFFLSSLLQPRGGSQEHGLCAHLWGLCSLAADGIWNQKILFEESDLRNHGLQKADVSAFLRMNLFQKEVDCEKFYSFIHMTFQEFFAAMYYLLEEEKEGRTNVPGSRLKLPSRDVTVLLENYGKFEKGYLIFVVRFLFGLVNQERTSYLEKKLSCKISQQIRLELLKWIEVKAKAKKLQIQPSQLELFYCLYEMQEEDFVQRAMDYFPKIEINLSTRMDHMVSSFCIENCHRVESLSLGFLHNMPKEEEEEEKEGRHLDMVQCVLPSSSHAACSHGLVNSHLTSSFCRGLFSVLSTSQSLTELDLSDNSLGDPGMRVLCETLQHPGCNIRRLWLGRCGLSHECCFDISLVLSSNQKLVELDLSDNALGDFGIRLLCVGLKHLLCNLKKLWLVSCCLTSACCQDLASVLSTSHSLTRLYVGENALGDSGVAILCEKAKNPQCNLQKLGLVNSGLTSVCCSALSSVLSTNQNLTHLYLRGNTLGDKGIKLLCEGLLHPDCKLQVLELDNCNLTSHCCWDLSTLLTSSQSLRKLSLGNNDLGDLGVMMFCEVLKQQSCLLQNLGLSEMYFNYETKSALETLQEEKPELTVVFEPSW

| SMILES | IC50 (PBMCs; [1]) [nM] | IC50 (NLRP3 inflammasome; [2]) [nM] | IC50 (PBMCs; [3]) [nM] | IC50 (NLRP3 inflammasome; [4]) [nM] | IC50 (PBMCs; [5]) [nM] |
| --- | --- | --- | --- | --- | --- |
| CC(C)c1cc(C2CC2)nc(C(C)C)c1NC(=O)NS(=O)(=O)c1cnn2c1OCCC2 [Example 45, N-((6-cyclopropyl-2,4-diisopropylpyridin-3-yl)carbamoyl)-6,7-dihydro-5H-pyrazolo[5,1-b][1,3]oxazine-3-sulfonamide] | 370 | 910 |  |  |  |
| CC(C)c1cc(N(C)C)nc(C(C)C)c1NC(=O)NS(=O)(=O)c1cnn2c1OCCC2 [drawing 418] |  |  | 100 to 1000 | 1000 to 10000 |  |
| O=C(NC1C2CC3CC(C2)C1C3)NS(=O)(=O)c1cnn2c1OCCC2 (centres unmarked) |  |  | > 10000 | 1000 to 10000 |  |
| CC(C)n1nc2c(c1NC(=O)NS(=O)(=O)c1cnn3c1OCCC3)CCC2 [Example 44, N-((2-isopropyl-2,4,5,6-tetrahydrocyclopenta[c]pyrazol-3-yl)carbamoyl)-6,7-dihydro-5H-pyrazolo[5,1-b][1,3]oxazine-3-sulfonamide] | > 10000 | 1220 |  |  |  |
| COc1cc(C(C)C)c(NC(=O)NS(=O)(=O)c2cnn3c2OC[C@@H](OC)C3)c(C(C)C)n1 [Example 37a, Sodium (S)—N-((2,4-diisopropyl-6-methoxypyridin-3-yl)carbamoyl)-6-methoxy-6,7-dihydro-5H-pyrazolo[5,1-b][1,3]oxazine-3-sulfonamide] | 600 | 550 |  |  |  |
| O=C(NC1C2CC3CC(C2)CC1C3)NS(=O)(=O)c1cnn2c1OCCC2 (centres unmarked) [Example 3, N-(((1r,3r,5r,7r)-adamantan-2-yl)carbamoyl)-6,7-dihydro-5H-pyrazolo[5,1-b][1,3]oxazine-3-sulfonamide] | > 10000 | 2080 |  |  |  |
| O=C(NC1(c2ccccc2)CC1)NS(=O)(=O)c1cnn2c1OCCC2 [drawing 376] |  |  | > 10000 | > 10000 |  |
| CC(C)c1cc(C#N)nc(C(C)C)c1NC(=O)NS(=O)(=O)c1cnn2c1OCCC2 [drawing 416] |  |  | 100 to 1000 | 1000 to 10000 |  |
| CC(C)c1ccnc(C(C)C)c1NC(=O)NS(=O)(=O)c1cnn2c1OCCC2 [Example 31, N-((2,4-diisopropylpyridin-3-yl)carbamoyl)-6,7-dihydro-5H-pyrazolo[5,1-b][1,3]oxazine-3-sulfonamide] | 890 | 4380 |  |  |  |
| CC(C)c1nn(C(C)C)c(C(C)C)c1NC(=O)NS(=O)(=O)c1cnn2c1OCCC2 [drawing 400] |  |  | 1000 to 10000 | 1000 to 10000 |  |
| CC(C)c1nn(CC2CC2)c(C(C)C)c1NC(=O)NS(=O)(=O)c1cnn2c1OCCC2 [drawing 402] |  |  | 100 to 1000 | 100 to 1000 |  |
| CCOc1cc(C(C)C)c(NC(=O)NS(=O)(=O)c2cnn3c2OCCC3)c(C(C)C)n1 [drawing 417] |  |  | 1000 to 10000 | 1000 to 10000 |  |
| CCn1nc(C(C)C)c(NC(=O)NS(=O)(=O)c2cnn3c2OC[C@@H](OC)C3)c1C(C)C [drawing 406] |  |  | 100 to 1000 | 1000 to 10000 |  |
| CN[C@@H]1COc2c(S(=O)(=O)NC(=O)Nc3c(C(C)C)cc(OC)nc3C(C)C)cnn2C1 [drawing 408] |  |  | < 100 | 100 to 1000 |  |
| CCn1nc(C(C)C)c(NC(=O)NS(=O)(=O)c2cnn3c2OCCC3)c1C(C)C [drawing 401] |  |  | 100 to 1000 | 1000 to 10000 |  |
| CC(C)c1cc(Cl)nc(C(C)C)c1NC(=O)NS(=O)(=O)c1cnn2c1OCCC2 [Example 32, N-((6-chloro-2,4-diisopropylpyridin-3-yl)carbamoyl)-6,7-dihydro-5H-pyrazolo[5,1-b][1,3]oxazine-3-sulfonamide] | 920 | 590 |  |  |  |
| CO[C@@H]1COc2c(S(=O)(=O)NC(=O)Nc3c(C(C)C)nn(C)c3C(C)C)cnn2C1 [drawing 405] |  |  | 100 to 1000 | 1000 to 10000 |  |
| CC(C)c1cncc(C(C)C)c1NC(=O)NS(=O)(=O)c1cnn2c1OCCC2 [Example 28, N-((3,5-diisopropylpyridin-4-yl)carbamoyl)-6,7-dihydro-5H-pyrazolo[5,1-b][1,3]oxazine-3-sulfonamide] | 69 | 1790 |  |  |  |

| SMILES | IC50 (PBMCs; [1]) [nM] | IC50 (NLRP3 inflammasome; [2]) [nM] | IC50 (PBMCs; [3]) [nM] | IC50 (NLRP3 inflammasome; [4]) [nM] | IC50 (PBMCs; [5]) [nM] |
| --- | --- | --- | --- | --- | --- |
| CC(C)c1ccnc(C(C)C)c1NC(=O)NS(=O)(=O)c1cnn2c1OCCC2 [drawing 397] |  |  |  | 1000 to 10000 | 1000 to 10000 |
| CC(C)c1cc(N(C)C)nc(C(C)C)c1NC(=O)NS(=O)(=O)c1cnn2c1OCCC2 [Example 51, Sodium N-((6-(dimethylamino)-2,4-diisopropylpyridin-3-yl)carbamoyl)-6,7-dihydro-5H-pyrazolo[5,1-b][1,3]oxazine-3-sulfonamide] | 1120 | 2070 |  |  |  |
| O=C(NC1(c2ccccc2)CC1)NS(=O)(=O)c1cnn2c1OCCC2 [Example 11, N-((1-phenylcyclopropyl)carbamoyl)-6,7-dihydro-5H-pyrazolo[5,1-b][1,3]oxazine-3-sulfonamide] | > 10000 | > 10000 |  |  |  |
| CC(C)n1nc2c(c1NC(=O)NS(=O)(=O)c1cnn3c1OCCC3)CCC2 [drawing 411] |  |  | > 10000 | 1000 to 10000 |  |
| COc1cc(C(C)C)c(NC(=O)NS(=O)(=O)c2cnn3c2OC[C@@H](OC)C3)c(C(C)C)n1 [drawing 404] |  |  | 100 to 1000 | 100 to 1000 |  |
| CC(C)c1cncc(C(C)C)c1NC(=O)NS(=O)(=O)c1cnn2c1OCCC2 [drawing 393] |  |  | 100 to 1000 | 100 to 1000 |  |
| CC(C)c1cncc(C(C)C)c1NC(=O)NS(=O)(=O)c1cnn2c1OCCC2 [drawing 394] |  |  |  | 1000 to 10000 | < 100 |
| CC(C)c1ccnc(C(C)C)c1NC(=O)NS(=O)(=O)c1cnn2c1OCCC2 [drawing 398] |  |  |  | 1000 to 10000 | 100 to 1000 |
| O=C(Nc1nc(-c2ccccc2)cc(C(F)(F)F)n1)NS(=O)(=O)c1cnn2c1OCCC2 [drawing 382] |  |  |  | > 10000 |  |
| O=C(NC(c1ccccc1)c1ccccc1)NS(=O)(=O)c1cnn2c1OCCC2 [drawing 380] |  |  |  | > 10000 |  |
| COc1cc(C(C)C)c(NC(=O)NS(=O)(=O)c2cnn3c2OCCC3)c(C(C)C)n1 [drawing 396] |  |  | 100 to 1000 | 100 to 1000 |  |
| COc1cc(C(C)C)c(NC(=O)NS(=O)(=O)c2cnn3c2OCC(CNC(C)=O)C3)c(C(C)C)n1 (centres unmarked) |  |  | 1000 to 10000 | 1000 to 10000 |  |
| O=C(NN1CCCCCC1)NS(=O)(=O)c1cnn2c1OCCC2 [drawing 379] |  |  |  | > 10000 |  |
| CC1Cc2ccccc2C1NC(=O)NS(=O)(=O)c1cnn2c1OCCC2 (centres unmarked) [Example 6, N-((2-methyl-2,3-dihydro-1H-inden-1-yl)carbamoyl)-6,7-dihydro-5H-pyrazolo[5,1-b][1,3]oxazine-3-sulfonamide] |  | > 10000 |  |  |  |
| CC(C)c1cc(C2CC2)nc(C(C)C)c1NC(=O)NS(=O)(=O)c1cnn2c1OCCC2 [drawing 412] |  |  | 100 to 1000 | 100 to 1000 |  |
| Cc1onc(-c2ccccc2)c1NC(=O)NS(=O)(=O)c1cnn2c1OCCC2 [drawing 373] |  |  | > 10000 | > 10000 |  |
| CC(C)c1cc(Cl)nc(C(C)C)c1NC(=O)NS(=O)(=O)c1cnn2c1OCCC2 [drawing 399] |  |  | 100 to 1000 | 100 to 1000 |  |
| COc1cc(C(C)C)c(NC(=O)NS(=O)(=O)c2cnn3c2OC[C@@H](N2CC(OC)C2)C3)c(C(C)C)n1 [drawing 409] |  |  | 100 to 1000 | < 100 |  |
